# Laboratory results taken from PubChem BioAssay AID602487 (The Scripps Research Institute Molecular Screening Center, 2012).
# Activity calls are given as the source filed them. How the calls were made is not given here.
# Test system: SARS coronavirus 3C-like protease (3CLpro)
# Test: SARS 3CLpro protease inhibitors, late-stage follow-up, biochemical, fluorescence, single concentration, set 5 (AID 602487)
# Details: purified 3CLpro, fluorogenic substrate cleavage; at 100 µM; hits give high values
row,SMILES,inhibition
1,CC(=O)Nc1ccc(N(C(=O)Cn2cc([Si](C)(C)C)nn2)C(C(=O)NC(C)(C)C)c2ccsc2)cc1 (stereo not given),-3.9% (inactive)
2,CC(C)C(=O)Nc1ccc(N(Cc2ccsc2)C(=O)Cn2cc(-c3ccccc3)nn2)cc1,3.7% (inactive)
3,CC(C)C(=O)Nc1ccc(N(Cc2ccsc2)C(=O)Cn2cc([Si](C)(C)C)nn2)cc1,4.5% (inactive)
4,CC(=O)Nc1ccc(N(C(=O)Cn2ccnn2)C(C(=O)NC(C)(C)C)c2ccsc2)cc1 (stereo not given),5.4% (inactive)
5,CC(C)C(=O)Nc1ccc(N(Cc2ccsc2)C(=O)Cn2ccnn2)cc1,26.1% (inactive)
